“And” between values parts separate entries of the source, which are not always exact repeats. Equal values may be shown once.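 Grown in 96-well plates, cells were treated for 48 hours with each compound at five concentrations. Insufficient inhibition: endpoint recorded as highest concentration tested. TGI: concentration producing complete growth inhibition.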
Legend:
Test in all cases: inhibition of tumour cell growth, NCI panel, 48 h
[1] = system: SN12C renal
[2] = system: U251 CNS
[3] = system: MDA-MB-231 breast
[4] = system: OVCAR-4 ovarian
[5] = system: MDA-N
[6] = system: A549 NSCLC
[7] = system: SK-MEL-5 melanoma
[8] = system: NCI-H226 lung
[9] = system: OVCAR-5 ovarian
[10] = system: HCT-116 colon
[11] = system: HCT-15 colon
[12] = system: SNB-19 CNS
[13] = system: NCI/ADR-RES ovarian
[14] = system: T-47D breast
[15] = system: M14 melanoma
[16] = system: HOP-92 NSCLC

SMILES	TGI [1]	TGI [2]	TGI [3]	TGI [4]	TGI [5]	TGI [6]	TGI [7]	TGI [8]	TGI [9]	TGI [10]	TGI [11]	TGI [12]	TGI [13]	TGI [14]	TGI [15]	TGI [16]
OC1COC2CC(Nc3ccccn3)OC12 (stereo not drawn)	> 100 µM	> 100 µM	> 100 µM	> 100 µM	> 100 µM	> 100 µM	> 100 µM	> 100 µM	> 100 µM	> 100 µM	> 100 µM	> 100 µM	> 100 µM	> 100 µM	> 100 µM	–
O=C(/C(=C\I)c1ccccc1)c1ccccc1	34.9 µM	9.69 µM	17.4 µM	17.7 µM	–	49.2 µM	31.3 µM	53.5 µM	33.1 µM	26.2 µM	9.37 µM	23.1 µM	44.1 µM	6.02 µM	30.5 µM	28.2 µM
O=C(O)[C@H](CCC[C@H]1C(=O)O[C@H](c2ccccc2)[C@H](c2ccccc2)N1C(=O)OCc1ccccc1)N[C@@H](c1ccccc1)[C@H](O)c1ccccc1	42.1 µM	31.1 µM	33.1 µM	75.9 µM	53.1 µM	> 100 µM	43 µM	–	> 100 µM	44.9 µM	> 100 µM	61.3 µM	> 100 µM	> 100 µM	> 100 µM	49.5 µM
CCOC(=O)C1(C#N)CC1	> 100 µM	> 100 µM	> 100 µM	> 100 µM	> 100 µM	> 100 µM	> 100 µM	> 100 µM	> 100 µM	> 100 µM	> 100 µM	> 100 µM	> 100 µM	> 100 µM	> 100 µM	–
C=C1C(=O)O[C@H]2C[C@@H]1[C@@H](O)[C@H](O)[C@@H](C)CCCC(C)=CCC[C@@]2(C)O	72.3 µM	64.5 µM	84.4 µM	83.9 µM	54.6 µM	> 100 µM	48.4 µM	–	51.3 µM	51.8 µM	> 100 µM	> 100 µM	–	57.1 µM	29.8 µM	99.5 µM
O=C(/C=C(\C(=O)c1cccs1)c1cccs1)c1ccc(C(=O)/C=C(\C(=O)c2cccs2)c2cccs2)cc1	> 100 µM	> 100 µM	> 100 µM	> 100 µM	–	> 100 µM	> 100 µM	> 100 µM	–	> 100 µM	> 100 µM	> 100 µM	> 100 µM	> 100 µM	> 100 µM	–
O=C(O)c1nc2ccc(C(F)(F)F)cc2nc1Nc1ccc(F)cc1	85.6 µM	> 100 µM	65.6 µM	> 100 µM	79.6 µM	–	> 100 µM	57 µM	64.3 µM	35 µM	70.2 µM	–	84.7 µM	–	–	–
O=C(Nc1ccc(S(=O)(=O)/N=c2\ncccn2C(=O)C(C(F)(F)F)C(F)(F)F)cc1)C(C(F)(F)F)C(F)(F)F	> 100 µM	> 100 µM	> 100 µM	> 100 µM	> 100 µM	> 100 µM	> 100 µM	> 100 µM	> 100 µM	> 100 µM	> 100 µM	> 100 µM	> 100 µM	> 100 µM	> 100 µM	–
CCC(C)C1=C(O)[N+]2([O-])Oc3ccc(-c4c(O)c(O)c(-c5ccc(OC(C)=O)cc5)c(OC(C)=O)c4OC(C)=O)cc3OC2(C(C)CC)C(=O)N1O (stereo not drawn)	> 50 µM	> 50 µM	> 50 µM	41.4 µM and 46.7 µM	> 50 µM	> 50 µM	> 50 µM	–	> 50 µM	–	> 50 µM	> 50 µM	> 50 µM	> 50 µM	> 50 µM	> 50 µM
O=c1[nH]c(=O)n(COCc2ccccc2)cc1Nc1ccc(Br)cc1	> 100 µM	> 100 µM	–	> 100 µM	> 100 µM	> 100 µM	> 100 µM	> 100 µM	> 100 µM	> 100 µM	> 100 µM	> 100 µM	> 100 µM	–	> 100 µM	> 100 µM
Cc1nc2cc(Nc3ccccc3C(=O)O)ccc2s1	> 100 µM	> 100 µM	–	> 100 µM	–	> 100 µM	> 100 µM	–	> 100 µM	> 100 µM	> 100 µM	> 100 µM	–	–	> 100 µM	> 100 µM
COc1cc2c(/C=C3/C(=O)N(C)c4ccc(O)cc43)c(Cl)[nH]c2cc1C	17 µM	17.6 µM	15 µM	21.6 µM	–	16.9 µM	6.35 µM	16.2 µM	21.6 µM	–	12.8 µM	5.35 µM	5.59 µM	5.93 µM	13.1 µM	38.5 µM
COc1ccc(C2C(=O)c3c(OC)cc(OC)cc3OC2c2cccnc2)cc1 (stereo not drawn)	> 100 µM	–	> 100 µM	> 100 µM	> 100 µM	> 100 µM	> 100 µM	> 100 µM	> 100 µM	> 100 µM	> 100 µM	> 100 µM	> 100 µM	> 100 µM	> 100 µM	–
C#CCN(Cc1ccc2nc(-c3ccccc3)c(N)nc2c1)c1cc(OC)c(OC)c(OC)c1	> 100 µM	> 100 µM	–	> 100 µM	–	> 100 µM	25.7 µM	52 µM	> 100 µM	57.7 µM	> 100 µM	> 100 µM	–	–	93.7 µM	–
[N-]=[N+]=CC(=O)OCCCCl	> 100 µM	> 100 µM	> 100 µM	> 100 µM	> 100 µM	–	> 100 µM	> 100 µM	> 100 µM	> 100 µM	> 100 µM	> 100 µM	–	–	–	> 100 µM
CC1(C)OC2OC(C(COS(=O)(=O)C(F)(F)F)N=[N+]=[N-])C(OC(=O)c3ccccc3)C2O1 (stereo not drawn)	> 100 µM	> 100 µM	> 100 µM	> 100 µM	> 100 µM	> 100 µM	> 100 µM	> 100 µM	> 100 µM	> 100 µM	> 100 µM	> 100 µM	> 100 µM	–	> 100 µM	> 100 µM
